Data published in patent US10538498B2, “1,3,4-oxadiazole sulfonamide derivative compounds as histone deacetylase 6 inhibitor, and the pharmaceutical composition comprising the same” (Chong Kun Dang Pharmaceutical Corp., priority 2015, dated 2020).

Molecular target: T1, human recombinant HDAC6 (Homo sapiens, UniProt Q9UBN7)
T1 construct: purchased Calbiochem 382180
T1 sequence (Q9UBN7 1-1215): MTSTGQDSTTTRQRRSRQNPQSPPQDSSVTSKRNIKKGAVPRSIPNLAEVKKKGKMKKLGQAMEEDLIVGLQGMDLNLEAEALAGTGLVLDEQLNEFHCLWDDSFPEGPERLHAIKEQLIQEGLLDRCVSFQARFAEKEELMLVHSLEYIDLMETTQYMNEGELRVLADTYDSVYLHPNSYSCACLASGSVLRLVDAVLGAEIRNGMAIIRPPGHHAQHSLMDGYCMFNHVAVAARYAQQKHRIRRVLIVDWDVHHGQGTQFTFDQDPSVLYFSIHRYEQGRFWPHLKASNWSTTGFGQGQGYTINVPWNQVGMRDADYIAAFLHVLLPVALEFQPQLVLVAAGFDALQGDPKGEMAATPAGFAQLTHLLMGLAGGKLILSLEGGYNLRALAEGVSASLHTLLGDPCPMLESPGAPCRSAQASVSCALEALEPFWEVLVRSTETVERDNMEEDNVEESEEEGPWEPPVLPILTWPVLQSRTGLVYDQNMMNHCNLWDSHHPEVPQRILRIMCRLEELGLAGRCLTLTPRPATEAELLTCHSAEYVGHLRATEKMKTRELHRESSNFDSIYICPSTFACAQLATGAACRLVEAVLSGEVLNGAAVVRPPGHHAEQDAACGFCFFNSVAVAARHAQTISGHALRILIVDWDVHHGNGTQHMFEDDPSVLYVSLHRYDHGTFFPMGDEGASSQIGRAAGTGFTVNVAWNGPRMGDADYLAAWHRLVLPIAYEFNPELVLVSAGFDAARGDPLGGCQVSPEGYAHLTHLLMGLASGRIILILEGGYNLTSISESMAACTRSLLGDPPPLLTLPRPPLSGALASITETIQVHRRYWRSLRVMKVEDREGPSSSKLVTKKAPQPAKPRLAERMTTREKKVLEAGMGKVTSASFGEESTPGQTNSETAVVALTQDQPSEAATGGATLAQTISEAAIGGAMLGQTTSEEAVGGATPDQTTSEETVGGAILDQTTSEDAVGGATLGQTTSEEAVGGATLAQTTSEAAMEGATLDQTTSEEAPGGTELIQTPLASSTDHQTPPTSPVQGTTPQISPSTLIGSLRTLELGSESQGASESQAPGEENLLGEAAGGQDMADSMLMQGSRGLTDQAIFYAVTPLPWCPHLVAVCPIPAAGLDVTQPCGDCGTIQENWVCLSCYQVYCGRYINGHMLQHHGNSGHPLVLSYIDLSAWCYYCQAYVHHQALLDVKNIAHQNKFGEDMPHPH
Test: HDAC6 enzyme activity inhibition assay (HDAC Fluorimetric Drug Discovery Kit)
Format: biochemical
Conditions: for HDAC6 selectivity (fold): HDAC1 vs HDAC6; for IC50: same protocol as the HDAC1 enzyme activity test
Outline: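 First, compound in 5-fold dilution steps is combined with 0.3 μg enzyme and 10 μM Fluor de Lys-SIRT1 substrate. After 60 min at 30° C, developer is added for 30 min. Fluorescence at Ex 360/Em 460 then gives IC50 values.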

Compound: O=S(=O)(CCN1CCCC(O)C1)N(Cc1ccc(-c2nnc(C(F)F)o2)cc1)c1ccccc1 (stereo not shown) [Compound 11700, N-(4-(5-(difluoromethyl)-1,3,4-oxadiazol-2-yl)benzyl)-2-(3-hydroxypiperidin-1-yl)-N-phenylethanesulfonamide]
- HDAC6 selectivity (fold): 782 fold
- IC50: 128 nM

Compound: O=S(=O)(CCN1CC[C@@H](CO)C1)N(Cc1ccc(-c2nnc(C(F)F)o2)cc1)c1ccccc1 [Compound 11805, (R)—N-(4-(5-(difluoromethyl)-1,3,4-oxadiazol-2-yl)benzyl)-2-(3-(hydroxymethyl)pyrrolidin-1-yl)-N-phenylethane-1-sulfonamide]
- HDAC6 selectivity (fold): 3021 fold
- IC50: 33.1 nM

Compound: CCS(=O)(=O)N(Cc1ccc(-c2nnc(C(F)F)o2)cc1F)c1cccc(C2CCN(C)CC2)c1 [Compound 11427, N-(4-(5-(difluoromethyl)-1,3,4-oxadiazol-2-yl)-2-fluorobenzyl)-N-(3-(1-methylpiperidin-4-yl)phenyl)ethanesulfonamide]
- HDAC6 selectivity (fold): 352 fold
- IC50: 284 nM

Compound: CN1CCc2nc(N(Cc3ccc(-c4nnc(C(F)F)o4)cc3)S(C)(=O)=O)sc2C1 [Compound 11750, N-(4-(5-(difluoromethyl)-1,3,4-oxadiazol-2-yl)benzyl)-N-(5-methyl-4,5,6,7-tetrahydrothiazolo[5,4-c]pyridin-2-yl)methanesulfonamide]
- HDAC6 selectivity (fold): 77 fold
- IC50: 1290 nM

Compound: CS(=O)(=O)N(Cc1cnc(-c2nnc(C(F)(F)F)o2)nc1)c1ccccc1 [Compound 11606, N-phenyl-N-((2-(5-(trifluoromethyl)-1,3,4-oxadiazol-2-yl)pyrimidin-5-yl)methyl)methanesulfonamide]
- HDAC6 selectivity (fold): 66 fold
- IC50: 1520 nM

Compound: O=S(=O)(CCN1CCC(c2ccc(F)cc2)CC1)N(Cc1ccc(-c2nnc(C(F)F)o2)cc1)c1ccccc1 [Compound 11819, N-(4-(5-(difluoromethyl)-1,3,4-oxadiazol-2-yl)benzyl)-2-(4-(4-fluorophenyl)piperidin-1-yl)-N-phenylethane-1-sulfonamide]
- HDAC6 selectivity (fold): 284 fold
- IC50: 351 nM

Compound: O=S(=O)(CCCN1CCOCC1)N(Cc1ccc(-c2nnc(C(F)F)o2)cn1)c1ccccc1 [Compound 11718, N-((5-(5-(difluoromethyl)-1,3,4-oxadiazol-2-yl)pyridin-2-yl)methyl)-3-morpholino-N-phenylpropane-1-sulfonamide]
- HDAC6 selectivity (fold): 1353 fold
- IC50: 73.9 nM

Compound: O=C(C1CC1)N1CCN(CCS(=O)(=O)N(Cc2ccc(-c3nnc(C(F)F)o3)cc2)c2ccccc2)CC1 [Compound 11761, 2-(4-(cyclopropanecarbonyl)piperazin-1-yl)-N-(4-(5-(difluoromethyl)-1,3,4-oxadiazol-2-yl)benzyl)-N-phenylethane-1-sulfonamide]
- HDAC6 selectivity (fold): 976 fold
- IC50: 102 nM

Compound: CC(=O)N1CC(N2CCC(S(=O)(=O)N(Cc3ccc(-c4nnc(C(F)F)o4)cc3F)c3ccc(F)c(Cl)c3)CC2)C1 [Compound 11447, 1-(1-acetylazetidin-3-yl)-N-(3-chloro-4-fluorophenyl)-N-(4-(5-(difluoromethyl)-1,3,4-oxadiazol-2-yl)-2-fluorobenzyl)piperidine-4-sulfonamide]
- HDAC6 selectivity (fold): 5556 fold
- IC50: 18 nM

Compound: CCS(=O)(=O)N(Cc1ccc(-c2nnc(C(F)F)o2)cc1F)c1ccccc1 [Compound 11154, N-(4-(5-(difluoromethyl)-1,3,4-oxadiazol-2-yl)-2-fluorobenzyl)-N-phenylethanesulfonamide]
- HDAC6 selectivity (fold): 5263 fold
- IC50: 19 nM

Compound: O=S(=O)(CCN1CCN(CCO)CC1)N(Cc1ccc(-c2nnc(C(F)F)o2)cc1)c1ccccc1 [Compound 11717, N-(4-(5-(difluoromethyl)-1,3,4-oxadiazol-2-yl)benzyl)-2-(4-(2-hydroxyethyl)piperazin-1-yl)-N-phenylethanesulfonamide]
- HDAC6 selectivity (fold): 879 fold
- IC50: 114 nM

Compound: O=S(=O)(CCN1CCCC(CO)C1)N(Cc1ccc(-c2nnc(C(F)F)o2)cc1)c1ccccc1 (stereo not shown) [Compound 11811, N-(4-(5-(difluoromethyl)-1,3,4-oxadiazol-2-yl)benzyl)-2-(3-(hydroxymethyl)piperidin-1-yl)-N-phenylethane-1-sulfonamide]
- HDAC6 selectivity (fold): 2358 fold
- IC50: 42.4 nM

Compound: O=S(=O)(C1CCN([C@H]2CC[C@H](F)CC2)CC1)N(Cc1ccc(-c2nnc(C(F)F)o2)cc1)c1cccc(Cl)c1 [Compound 11725, N-(3-chlorophenyl)-N-(4-(5-(difluoromethyl)-1,3,4-oxadiazol-2-yl)benzyl)-1-((1r,4r)-4-fluorocyclohexyl)piperidine-4-sulfonamide]
- HDAC6 selectivity (fold): 412 fold
- IC50: 243 nM

Compound: O=S(=O)(CCN1CCC(CO)CC1)N(Cc1ccc(-c2nnc(C(F)F)o2)cc1)c1ccccc1 [Compound 11810, N-(4-(5-(difluoromethyl)-1,3,4-oxadiazol-2-yl)benzyl)-2-(4-(hydroxymethyl)piperidin-1-yl)-N-phenylethane-1-sulfonamide]
- HDAC6 selectivity (fold): 2793 fold
- IC50: 35.8 nM

Compound: COc1ccccc1N(Cc1ccc(-c2nnc(C(F)F)o2)cc1F)S(C)(=O)=O [Compound 11251, N-(4-(5-(difluoromethyl)-1,3,4-oxadiazol-2-yl)-2-fluorobenzyl)-N-(2-methoxyphenyl)methanesulfonamide]
- HDAC6 selectivity (fold): 1563 fold
- IC50: 64 nM

Compound: O=S(=O)(CCN1CCC(Cc2ccccc2)CC1)N(Cc1ccc(-c2nnc(C(F)F)o2)cc1)c1ccccc1 [Compound 11762, 2-(4-benzylpiperidin-1-yl)-N-(4-(5-(difluoromethyl)-1,3,4-oxadiazol-2-yl)benzyl)-N-phenylethane-1-sulfonamide]
- HDAC6 selectivity (fold): 100 fold
- IC50: 1000 nM

Compound: O=S(=O)(CCn1ccnc1)N(Cc1ccc(-c2nnc(C(F)F)o2)cc1)c1ccccc1 [Compound 11816, N-(4-(5-(difluoromethyl)-1,3,4-oxadiazol-2-yl)benzyl)-2-(1H-imidazol-1-yl)-N-phenylethane-1-sulfonamide]
- HDAC6 selectivity (fold): 2695 fold
- IC50: 37.1 nM

Compound: O=S(=O)(CCCN1CCC(F)(F)C1)N(Cc1ccc(-c2nnc(C(F)F)o2)cn1)c1ccccc1 [Compound 11719, N-((5-(5-(difluoromethyl)-1,3,4-oxadiazol-2-yl)pyridin-2-yl)methyl)-3-(3,3-difluoropyrrolidin-1-yl)-N-phenylpropane-1-sulfonamide]
- HDAC6 selectivity (fold): 1177 fold
- IC50: 84.9 nM

Compound: CS(=O)(=O)N(Cc1ccc(-c2nnc(C(F)(F)F)o2)cc1F)c1cncnc1 [Compound 11194, N-(2-fluoro-4-(5-(trifluoromethyl)-1,3,4-oxadiazol-2-yl)benzyl)-N-(pyrimidin-5-yl)methanesulfonamide]
- HDAC6 selectivity (fold): 1538 fold
- IC50: 65 nM

Compound: Cc1cncn1CCS(=O)(=O)N(Cc1ccc(-c2nnc(C(F)F)o2)cc1)c1ccccc1 [Compound 11807, N-(4-(5-(difluoromethyl)-1,3,4-oxadiazol-2-yl)benzyl)-2-(5-methyl-1H-imidazol-1-yl)-N-phenylethane-1-sulfonamide]
- HDAC6 selectivity (fold): 1584 fold
- IC50: 63.1 nM

Compound: CCS(=O)(=O)N(Cc1ccc(-c2nnc(C(F)F)o2)cn1)c1ccc2cnn(C)c2c1 [Compound 11540, N-((5-(5-(difluoromethyl)-1,3,4-oxadiazol-2-yl)pyridin-2-yl)methyl)-N-(1-methyl-1H-indazol-6-yl)ethanesulfonamide]
- HDAC6 selectivity (fold): 10000 fold
- IC50: 10 nM

Compound: CS(=O)(=O)N(Cc1ccc(-c2nnc(C(F)F)o2)cc1F)c1ccccc1C(F)(F)F [Compound 11219, N-(4-(5-(difluoromethyl)-1,3,4-oxadiazol-2-yl)-2-fluorobenzyl)-N-(2-(trifluoromethyl)phenyl)methanesulfonamide]
- HDAC6 selectivity (fold): 1064 fold
- IC50: 94 nM

Compound: CN1CCN(CCS(=O)(=O)N(Cc2ccc(-c3nnc(C(F)F)o3)cc2)c2ccccc2)CC1 [Compound 11630, N-(4-(5-(difluoromethyl)-1,3,4-oxadiazol-2-yl)benzyl)-2-(4-methylpiperazin-1-yl)-N-phenylethane-1-sulfonamide]
- HDAC6 selectivity (fold): 3225 fold
- IC50: 31 nM
